Experimental data from patent EP1499590B1, “Piperidine derivatives as potassium channel blockers” (AstraZeneca AB, priority 2001, dated 2003).
Like-named read-outs stand apart in the source and are kept apart here.

Biological target: T1, human ether-a-go-go-related-gene (hERG)-encoded potassium channel (Homo sapiens, UniProt Q12809)
T1 construct: expressed in transfected cells; host or cells: Human embryonic kidney (HEK) cells, grown under Geneticin G418 selection
Experiment: hERG-encoded potassium channel inhibition test (whole-cell patch clamp, tail current)
Assay type: cell-based

[1] = HEK cells expressing the hERG-encoded channel, tail current after step from +40 mV to -50 mV, room temperature (~20 °C), read-out: IC50

T1 sequence (Q12809 whole entry): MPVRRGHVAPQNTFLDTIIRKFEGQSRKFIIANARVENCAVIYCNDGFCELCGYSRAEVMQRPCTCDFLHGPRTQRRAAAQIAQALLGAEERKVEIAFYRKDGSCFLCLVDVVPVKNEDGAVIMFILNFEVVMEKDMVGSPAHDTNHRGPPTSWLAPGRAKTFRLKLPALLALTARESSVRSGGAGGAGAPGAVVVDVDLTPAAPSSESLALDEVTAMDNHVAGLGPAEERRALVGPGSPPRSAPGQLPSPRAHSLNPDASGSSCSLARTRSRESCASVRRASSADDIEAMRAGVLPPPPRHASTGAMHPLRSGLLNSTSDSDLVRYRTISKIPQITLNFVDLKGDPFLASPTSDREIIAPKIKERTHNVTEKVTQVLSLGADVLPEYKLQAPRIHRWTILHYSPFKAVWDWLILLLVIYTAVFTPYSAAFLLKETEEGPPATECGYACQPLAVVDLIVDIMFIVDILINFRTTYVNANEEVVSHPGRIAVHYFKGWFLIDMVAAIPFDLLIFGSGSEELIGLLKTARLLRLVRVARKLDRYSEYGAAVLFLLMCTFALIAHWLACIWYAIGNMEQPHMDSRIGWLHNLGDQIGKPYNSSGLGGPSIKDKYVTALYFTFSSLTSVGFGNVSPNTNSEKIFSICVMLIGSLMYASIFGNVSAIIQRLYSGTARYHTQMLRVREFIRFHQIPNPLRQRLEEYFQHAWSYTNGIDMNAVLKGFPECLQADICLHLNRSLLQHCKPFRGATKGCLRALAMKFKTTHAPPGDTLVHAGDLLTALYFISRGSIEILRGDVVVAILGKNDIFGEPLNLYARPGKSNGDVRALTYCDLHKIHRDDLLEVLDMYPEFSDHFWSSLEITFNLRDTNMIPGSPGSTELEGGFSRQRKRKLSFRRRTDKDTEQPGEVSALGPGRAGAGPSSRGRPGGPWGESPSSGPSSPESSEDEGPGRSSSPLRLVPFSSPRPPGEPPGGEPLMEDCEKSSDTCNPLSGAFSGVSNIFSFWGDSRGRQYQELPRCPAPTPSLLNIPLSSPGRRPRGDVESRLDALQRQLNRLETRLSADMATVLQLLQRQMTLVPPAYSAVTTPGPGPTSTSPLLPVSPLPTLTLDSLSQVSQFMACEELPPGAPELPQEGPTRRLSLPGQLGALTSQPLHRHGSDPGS
Description: This assay determines the ability of a test compound to inhibit the tail current flowing through the human ether-a-go-go-related-gene (hERG)-encoded potassium channel.
One or two days before each experiment, the cells were detached from the tissue culture flasks with Accutase (TCS Biologicals) using standard tissue culture methods. They were then put onto glass coverslips resting in wells of a 12 well plate and covered with 2 ml of the growing media.
For each cell recorded, a glass coverslip containing the cells was placed at the bottom of a Perspex chamber containing bath solution (see below) at room temperature (~20 °C). This chamber was fixed to the stage of an inverted, phase-contrast microscope. Immediately after placing the coverslip in the chamber, bath solution was perfused into the chamber from a gravity-fed reservoir for 2 minutes at a rate of ~ 2 ml/min. After this time, perfusion was stopped.
A patch pipette made from borosilicate glass tubing (GC120F, Harvard Apparatus) using a P-97 micropipette puller (Sutter Instrument Co.) was filled with pipette solution (see hereinafter). The pipette was connected to the headstage of the patch clamp amplifier (Axopatch 200B, Axon Instruments) via a silver/silver chloride wire. The headstage ground was connected to the earth electrode. This consisted of a silver/silver chloride wire embedded in 3% agar made up with 0.85% sodium chloride.
The cell was recorded in the whole cell configuration of the patch clamp technique. Following "break-in", which was done at a holding potential of -80 mV (set by the amplifier), and appropriate adjustment of series resistance and capacitance controls, electrophysiology software (Clampex, Axon Instruments) was used to set a holding potential (-80 mV) and to deliver a voltage protocol. This protocol was applied every 15 seconds and consisted of a 1 s step to +40 mV followed by a I s step to -50 mV. The current response to each imposed voltage protocol was low pass filtered by the amplifier at 1 kHz. The filtered signal was then acquired, on line, by digitising this analogue signal from the amplifier with an analogue to digital converter. […]
The amplitude of the hERG-encoded potassium channel tail current following the step from +40 mV to -50 mV was recorded on-line by Clampex software (Axon Instruments). […]
The effect of each concentration of test compound was quantified by expressing the tail current amplitude in the presence of a given concentration of test compound as a percentage of that in the presence of vehicle.
Test compound potency (IC50) was determined by fitting the percentage inhibition values making up the concentration-effect to a four parameter Hill equation using a standard data-fitting package.

| SMILES | IC50 [nM] | IC50 [1] [nM] |
| --- | --- | --- |
| CC(=O)Nc1ccc(O)cc1OC[C@@](C)(O)CNC1CCN(Cc2ccc(Cl)cc2)CC1 [Example 1, 4-({(2S)-3-[2-(acetylamino)-5-hydroxyphenoxy]-2-hydroxy-2-methylpropyl}ammonio)-1-(4-chlorobenzyl)piperidinium di(2,2,2-trifluoroacetate)] | 31600 | – |
| CC(=O)Nc1ccc(Cl)cc1OCC(O)CNC1CCN(Cc2ccc(Cl)cc2)CC1 (stereo not shown) [Comparison C] | – | 100 |
| CC(=O)Nc1ccccc1OCC(O)CNC1CCN(Cc2ccc(Cl)cc2)CC1 (stereo not shown) [Comparison A] | – | 300 |
| COc1ccc(NC(C)=O)c(OC[C@@](C)(O)CNC2CCN(Cc3ccc(Cl)cc3)CC2)c1 [Comparison B] | – | 300 |
